The source of these data is patent publication US20210137960A1, “COMPOSITIONS AND METHODS FOR INHIBITION OF NUCLEAR-PENETRATING ANTIBODIES” (Yale University, priority 2018, published 2021).

Test [1] relates to DLD1 colon cancer cells. Description: Protein L immunodetection of variant 13 nuclear penetration with importin pathway inhibitors, DLD1. Particulars: 10 μM variant 13 co-incubated with 0, 10, 25, or 50 μM inhibitor. In kind it is cell-based. As to the method:
(§1) For all experiments, cells were cultivated overnight to allow for attachment, followed by pretreatment with either control medium (absence of inhibitor), or medium containing inhibitor for durations previously-reported in the literature (see Table 5, below).
(§2) For endocytosis inhibition experiments, cells were cultivated in serum-free medium containing 1% v/v BSA to deplete endogenous serum levels. Following preincubation with inhibitors, cells were treated with either control medium or 10 μM variant 13, and the same dose of small molecule inhibitor for a further 30 minutes. For all experiments, cells were washed thrice, followed by immediate fixation with pre-chilled ice-cold ethanol. Subsequently, treated cells were probed using a protein L immunodetection approach to probe variant 13 nuclear uptake (Rattray et al., Biochem Biophys Res Commun 496, 858-864 (2018)). All monolayers were immediately imaged following color development on an Evos Fl microscope.
(§3) DLD-1 and A549 cells were treated with 10 μM variant 13 co-incubated with 0, 10, 25, or 50 μM concentrations of ivermectin. Relative intensity of protein L nuclear staining as compared to amount of stain in cells treated without ivermectin was also quantified by ImageJ.
(§4) DLD-1 cells and A549 cells were treated with 10 μM variant 13 co-incubated with 0, 10, 25, or 50 μM concentrations of importazole and then immunostained for protein L.
(§5) DLD-1 cells and A549 cells were treated with 10 μM variant 13 co-incubated with 0, 10, 25, or 50 μM concentrations of mifepristone and then immunostained for protein L.

Test [2] deals with A549 lung cancer cells. Description: Protein L immunodetection of variant 13 nuclear penetration with importin pathway inhibitors, A549. Format: cell-based. Conditions: 10 μM variant 13 co-incubated with 0, 10, 25, or 50 μM inhibitor. As to the method: as §1, §2, §3, §4, §5
Test [3] has as its system MCF7 breast cancer cells. Description: Uptake of rhodamine-labeled variant 13 in live cells, light and fluorescence microscopy, MCF7. In kind it is cell-based. Conditions: 50 μM ivermectin. As to the method: Live MCF7 breast cancer cells were treated with control or rhodamine-labeled variant 13 (Rh-variant 13)+/−50 μM ivermectin and were then visualized under light and fluorescence microscopy.

In test [4] the test system is DLD1 cells. Description: SLE sera nuclear import with nuclear import inhibitors, anti-human IgG immunostain. Format: cell-based. Conditions: for effect on nuclear uptake of ANAs in SLE-19: SLE-19 serum. The method, then: DLD1 cells were pre-treated with either control media, or media containing nuclear import inhibitors for four hours. Subsequent co-treatment with inhibitor and patient SLE serum (diluted 1:50) was performed for one hour at 37° C. Following treatment, cells were fixed, blocked and probed with an alkaline-phosphatase anti-human IgG […] antibody overnight (Fisher Scientific). Cell monolayers were washed, and color developed using NBT/BCIP reagent (Fisher Scientific) for the same duration across all experiments. Following chromogen color development, all monolayers were washed, and brightfield images acquired immediately on an Evos F microscope.

For test [5], the system named is DLD1 cells. Put plainly: Nuclear penetration of scleroderma autoantibody SSC and effect of ivermectin, microscopic analysis. In kind it is cell-based. An excerpt:
In addition to SLE, cell-penetrating autoantibodies are detected in other autoimmune diseases such as scleroderma. […] SSC was expressed in and purified from HEK293T cells.

The test system of test [6] is DLD1 cancer cells. Description: Uptake of rhodamine-labeled variant 13 in live cells, light and fluorescence microscopy, DLD1. In kind it is cell-based. Particulars: 50 μM importazole. The method, then:
Live DLD1 cancer cells were treated with control or rhodamine-labeled variant 13 (Rh-variant 13)+/−50 μM importazole and were then visualized under light and fluorescence microscopy.

Test [7] deals with cell nuclei. Put plainly: Nuclear penetration of humanized 3E10 variants compared with original 3E10 (D31N) di-scFv. Format: cell-based. Particulars: for Nuclear localizing?: humanized 3E10 variants; for nuclear penetration compared to the prototype: vs original 3E10 (D31N) di-scFv. An excerpt:
A range of humanized 3E10 variants were generated with subtle differences in framework and CDR sequences.

For test [8], the system named is cell nuclei. Conditions: known anti-dsDNA autoantibodies; cited from earlier work.

Where two headings read alike, the source gives them in different places.

In the case of “22,23-dihydroavermectin B1a/B1b [ivermectin]”, the “effect on nuclear penetration by variant 13” value (“effect on nuclear penetration” for short) in test [1] and in test [2] was “dose-dependent reduction in nuclear penetration” each time. For the same molecule, the “effect on cellular/nuclear uptake of rhodamine-labeled variant 13” value in test [3] is given as “inhibited cellular/nuclear uptake”. Besides, the “effect on nuclear staining by ANAs in SLE sera” value in test [4] (SLE-4, 8, 9, and 19 serum diluted 1:50, pre- and co-treatment) is “reduced the nuclear staining associated with each sample”. For the same molecule, the “effect on nuclear uptake of SSC” value in test [5] is “inhibited the nuclear uptake of SSC”.

Turning to `CC(Nc1nc(N2CCCC2)nc2ccccc12)c1ccccc1` (centres unmarked) [importazole, N-(1-phenylethyl)-2-pyrrolidin-1-ylquinazolin-4-amine], the “effect on nuclear penetration” value in test [1] and in test [2] was “reduction in nuclear penetration” in each case. Besides, the “effect on nuclear uptake of rhodamine-labeled variant 13” value in test [6] is recorded as “inhibited nuclear uptake”. Moreover, the “effect on nuclear uptake of ANAs in SLE-19” value in test [4] was “inhibit nuclear uptake of ANAs in SLE-19 in a dose-dependent manner”.

As to `CC#C[C@]1(O)CC[C@H]2[C@@H]3CCC4=CC(=O)CCC4=C3[C@@H](c3ccc(N(C)C)cc3)C[C@@]21C` [mifepristone, 11β-(4-Dimethylamino)phenyl-170-hydroxy-17-(1-propynyl)-estra-4,9-dien-3-one], the “effect on nuclear penetration” value in test [1] and in test [2] was “reduction in nuclear penetration” throughout. The “effect on nuclear uptake of ANAs in SLE-19” value in test [4] is “inhibit nuclear uptake of ANAs in SLE-19 in a dose-dependent manner”.

B1: variant 10: humanized 3E10 variant, SEQ ID NOS:14, 22, and 32 (protein)
chain 1: EVQLVESGGGLVQPGGSLRLSCAASGFTFSNYGMHWVRQAPGKGLEWVSYISSSSSTIYYADSVKGRFTISRDNAKNSLYLQMNSLRAEDTAVYYCARRGLLLDYWGQGTTVTVSS
chain 2: DIQMTQSPSSLSASVGDRVTITCRASKSVSTSSYSYMHWYQQKPGKAPKLLIKYASYLESGVPSRFSGSGSGTDFTLTISSLQPEDFATYYCQHSREFPWTFGQGTKVEIK
chain 3: DIQMTQSPSSLSASVGDRVTITCRASKSVSTSSYSYMHWYQQKPGKAPKLLIKYASYLESGVPSRFSGSGSGTDFTLTISSLQPEDFATYYCQHSREFPWTFGQGTKVEIKRADAAPGGGGSGGGGSGGGGSEVQLVESGGGLVQPGGSLRLSCAASGFTFSNYGMHWVRQAPGKGLEWVSYISSSSSTIYYADSVKGRFTISRDNAKNSLYLQMNSLRAEDTAVYYCARRGLLLDYWGQGTTVTVSSASTKGPSVFPLAPLESSGSDIQMTQSPSSLSASVGDRVTITCRASKSVSTSSYSYMHWYQQKPGKAPKLLIKYASYLESGVPSRFSGSGSGTDFTLTISSLQPEDFATYYCQHSREFPWTFGQGTKVEIKRADAAPGGGGSGGGGSGGGGSEVQLVESGGGLVQPGGSLRLSCAASGFTFSNYGMHWVRQAPGKGLEWVSYISSSSSTIYYADSVKGRFTISRDNAKNSLYLQMNSLRAEDTAVYYCARRGLLLDYWGQGTTVTVSS
Regarding B1, in test [7], the “Nuclear localizing?” value is reported as “Yes” and the “nuclear penetration compared to the prototype” value is on record as “penetrated nuclei very well”.

B2: variant 13: humanized 3E10 variant, SEQ ID NOS:17, 23, and 35, expressed in a CHO cell system (protein)
chain 1: EVQLVESGGGLVQPGGSLRLSCAASGFTFSNYGMHWVRQAPGKGLEWVSYISSGSSTIYYADSVKGRFTISRDNAKNSLYLQMNSLRAEDTAVYYCARRGLLLDYWGQGTTVTVSS
chain 2: DIQMTQSPSSLSASLGDRATITCRASKTVSTSSYSYMHWYQQKPGQPPKLLIKYASYLESGVPSRFSGSGSGTDFTLTISSLQPEDAATYYCQHSREFPWTFGGGTKVEIK
chain 3: DIQMTQSPSSLSASLGDRATITCRASKTVSTSSYSYMHWYQQKPGQPPKLLIKYASYLESGVPSRFSGSGSGTDFTLTISSLQPEDAATYYCQHSREFPWTFGGGTKVEIKRADAAPGGGGSGGGGSGGGGSEVQLVESGGGLVQPGGSLRLSCAASGFTFSNYGMHWVRQAPGKGLEWVSYISSGSSTIYYADSVKGRFTISRDNAKNSLYLQMNSLRAEDTAVYYCARRGLLLDYWGQGTTVTVSSASTKGPSVFPLAPLESSGSDIQMTQSPSSLSASLGDRATITCRASKTVSTSSYSYMHWYQQKPGQPPKLLIKYASYLESGVPSRFSGSGSGTDFTLTISSLQPEDAATYYCQHSREFPWTFGGGTKVEIKRADAAPGGGGSGGGGSGGGGSEVQLVESGGGLVQPGGSLRLSCAASGFTFSNYGMHWVRQAPGKGLEWVSYISSGSSTIYYADSVKGRFTISRDNAKNSLYLQMNSLRAEDTAVYYCARRGLLLDYWGQGTTVTVSS
For the molecule B2, in test [7], the “Nuclear localizing?” value was “Yes” and the “nuclear penetration compared to the prototype” value is on record as “penetrated nuclei very well”.

B3: 5C6: monoclonal anti-DNA antibody with nucleolytic activity from MRL/lpr lupus mouse model hybridoma (antibody, listed as Mus musculus, V domains shown)
VL: DIVLTQSPASLAAVSLGERATISYRASKSVSTSGYSYMHWNQQKPGQAPRLLIYLVSNLESGVPARFSGSGSGTDFTLNIHPVEEEDAATYYCQHIRELDTFFGGGTKLEIK
VH: QLKLVESGGGLVKPGGSLKLSCAASGFTFSSYTMSWVRQTPAKRLEWVATISSGGGSTYYPDSVKGRFTISRDNARNTLYLQMSSLRSEDTAMYYCARRAYSKRGAMDYWGQGTSVTVSS
As for B3, the “Nuclear localizing?” value in test [8] was “Yes”.
